Values joined by “and” are separate entries in the source; they are usually repeats but may differ in a detail not shown here. Identical values can stand only once.
Experiments:
[1] = 101 kPa, Liquid; for mass density: Vibrating tube method
[2] = xn = mol fraction of the nth substance listed; details: 101 kPa, Liquid; for mass density: Vibrating tube method

CCCCCCC [heptane]
[1]
Details | mass density [kg/m3] | viscosity [mPa·s]
308.15 K | 671.3 | 0.3497
313.15 K | 667.1 | 0.3329

C1CCCCCCC1 [cyclooctane]
[1]
Details | mass density [kg/m3] | viscosity [mPa·s]
308.15 K | 823.6 | 1.803
313.15 K | 819.7 | 1.636

c1ccccc1 [benzene]
[1]
Details | mass density [kg/m3] | viscosity [mPa·s]
308.15 K | 862.9 | 0.5272
313.15 K | 857.7 | 0.4942

CCc1ccccc1 [ethylbenzene] + Cc1ccccc1
[2]
Details | mass density, 308.15 K [kg/m3] | mass density, 318.15 K [kg/m3] | viscosity, 308.15 K [mPa·s] | viscosity, 313.15 K [mPa·s]
x2 = 0 | 853.7 | 849.5 | 0.5652 | 0.5294
x2 = 0.0424 | 853.7 | 849.5 | 0.5587 | 0.5306
x2 = 0.128 | 853.7 | 849.4 | 0.5587 | 0.525
x2 = 0.2164 | 853.6 | 849.3 | 0.5471 | 0.5185
x2 = 0.2928 | 853.6 | 849.3 | 0.5408 | 0.5124
x2 = 0.393 | 853.5 | 849.2 | 0.5379 | 0.5186
x2 = 0.4922 | 853.4 | 849.1 | 0.5349 | 0.5022
x2 = 0.5716 | 853.4 | 849 | 0.5243 | 0.4968
x2 = 0.7107 | 853.2 | 848.8 | 0.5125 | 0.4853
x2 = 0.8425 | 853 | 848.6 | 0.5108 | 0.4781

CCCCCCC [heptane] + CCc1ccccc1
[2], x1 = 1
Details | mass density [kg/m3] | viscosity [mPa·s]
308.15 K | 671.3 | 0.3497
313.15 K | 667.1 | 0.3329

CCCCCCC [heptane] + C1CCCCCCC1
[2], x1 = 1
Details | mass density [kg/m3] | viscosity [mPa·s]
308.15 K | 671.3 | 0.3497
313.15 K | 667.1 | 0.3329

CCc1ccccc1 [ethylbenzene] + C1CCCCCCC1
[2], x1 = 1
Details | mass density [kg/m3] | viscosity [mPa·s]
308.15 K | 853.7 | 0.5652
313.15 K | 849.5 | 0.5294

Cc1ccccc1 [toluene] + CCc1ccccc1
[2], x1 = 1
Details | mass density [kg/m3] | viscosity [mPa·s]
308.15 K | 852.8 | 0.494
313.15 K | – | 0.4755
318.15 K | 848.3 | –

CCc1ccccc1 [ethylbenzene]
[1]
Details | mass density [kg/m3] | viscosity [mPa·s]
308.15 K | 853.7 | 0.5652
313.15 K | 849.5 | 0.5294
318.15 K | 849.5 | –

Cc1ccccc1 [toluene] + C1CCCCCCC1
[2], x1 = 1
Details | mass density [kg/m3] | viscosity [mPa·s]
308.15 K | 852.8 | 0.494
313.15 K | 848.3 | 0.4676

Cc1ccccc1 [toluene]
[1]
Details | mass density [kg/m3] | viscosity
308.15 K | 852.8 | 0.494 mPa·s
313.15 K | 848.3 | 0.4676 mPa·s and 0.4755 mPa·s
318.15 K | 848.3 | –

CCc1ccccc1 [ethylbenzene] + CCCCCCC
[2]
Details | mass density, 308.15 K [kg/m3] | mass density, 313.15 K [kg/m3] | viscosity, 308.15 K [mPa·s] | viscosity, 313.15 K [mPa·s]
x2 = 0 | 853.7 | 849.5 | 0.5652 | 0.5294
x2 = 0.1034 | 831.5 | 827.4 | 0.5217 | 0.4945
x2 = 0.2048 | 810.6 | 806.5 | 0.4925 | 0.4631
x2 = 0.2931 | 793 | 788.8 | 0.4625 | 0.4393
x2 = 0.3754 | 777.2 | 773 | 0.44 | 0.419
x2 = 0.488 | 756.3 | 752.2 | 0.4195 | 0.3986
x2 = 0.5929 | 737.7 | 733.6 | 0.4061 | 0.3807
x2 = 0.6899 | 720.9 | 716.7 | 0.3859 | 0.3669
x2 = 0.8051 | 701.8 | 697.7 | 0.369 | 0.3516
x2 = 0.8979 | 687.1 | 683 | 0.3659 | 0.3425

Cc1ccccc1 [toluene] + CCCCCCC
[2]
Details | mass density, 308.15 K [kg/m3] | mass density, 313.15 K [kg/m3] | viscosity, 308.15 K [mPa·s] | viscosity, 313.15 K [mPa·s]
x2 = 0 | 852.8 | 848.3 | 0.494 | 0.4676
x2 = 0.0901 | 830.9 | 826.5 | 0.4631 | 0.4392
x2 = 0.1949 | 807 | 802.6 | 0.4406 | 0.4129
x2 = 0.299 | 786.6 | 782.2 | 0.415 | 0.3944
x2 = 0.3959 | 765.9 | 761.6 | 0.3967 | 0.377
x2 = 0.4836 | 749.6 | 745.4 | 0.3861 | 0.3668
x2 = 0.5809 | 732.8 | 728.6 | 0.3811 | 0.3562
x2 = 0.6809 | 716.6 | 712.5 | 0.3666 | 0.3488
x2 = 0.792 | 699.8 | 695.6 | 0.3575 | 0.341
x2 = 0.8884 | 686.1 | 682 | 0.3605 | 0.3367
